In PMC10419174, “WR1065 conjugated to thiol-PEG polymers as novel anticancer prodrugs: broad spectrum efficacy, synergism, and drug resistance reversal” (Frontiers in Oncology, 2023):
Where “and” joins values, the source holds several entries; their conditions need not be identical. Equal entries are not always repeated. Where two headings read alike, the source gives them in different places.

Assays:
A549 NSCLC cells = assay: cells
Experimental: (§1) The percentage of growth inhibition was calculated as follows: […]

NCI-H1975 NSCLC cells = assay: cells
Experimental: as §1

Ovary SKOV3 cells = assay: cells
Experimental: as §1

Ovary TOV21G cells = assay: cells
Experimental: as §1

Prostate DU145 cells = assay: cells
Experimental: as §1

Prostate LNCaP cells = assay: cells
Experimental: as §1

human cancer cell lines = assay: cells
Experimental: as §1

[1] = tested on: Strain-2 and Strain-3 NHMECs; format: cell-based; conditions: for cell growth, % of control cell values: 500 µM
Source text: Normal human mammary epithelial cell (NHMEC) strains used to assess potential cytotoxicity of 4SP65 and 1LP65 were established from reduction mammoplasty tissue from a healthy donor (M99005 or ‘Strain-1’) ([53]) or purchased from ATCC (Manassas, VA, USA; batch#70043304 or ‘Strain-2’) or Cell Applications (San Diego, CA, USA; lot#1669 or ‘Strain-3’). Human cancer cell lines including HCC38, MDA-MB-231, A549, National Cancer Institute (NCI)-H460, NCI-H1437, NCI-H1975, DU145, LNCaP, PC3, PANC1, SKOV3, and HL60, which were free of Mycoplasma, were purchased from ATCC. HMESO1, PPMMill, and TOV21G cells, obtained from Dr. Brian Cunniff, were verified to be Mycoplasma negative using the LookOut® Mycoplasma PCR Detection Kit (Sigma-Aldrich) and to match previously annotated DNA fingerprints by the Vermont Integrative Genomics Resource DNA Analysis Facility.
To assess the effects of 4SP65 or 1LP65 on the growth of normal epithelium, experiments were performed using NHMEC strains from differing donors ([53]). Strain-1 NHMECs were plated at 5,000 cells/well in 24-well plates and allowed to reach 50% confluence before treatment with 0-150 µM 4SP65 for 48 h. Cell viability was determined using a hemocytometer and trypan blue exclusion assay. Two other NHMEC strains, exposed to 0-150 µM 4SP65 or 0-500 µM 1LP65 for 48 h, were handled in the same fashion except that viability of cells in 96-well plates was determined using CyQUANT dye. Due to the short life span of these NHMECs, standard curves were not generated and fluorescence readings were used as a surrogate marker of cell number ([54]).

[2] = pretreated with 1 mM DFMO for 24 h, then 48 h
[3] = without DFMO pretreatment, 48 h
[4] = 48-h treatment, amifostine ND = not definable up to 500 µM
[5] = read-out: LC50, 48-h treatment, amifostine ND = not definable up to 500 µM
[6] = 1LP65: average across 11 cell lines, 48 h
[7] = 15 cell lines for 4SP65, 11 for 1LP65
[8] = average of HCC38, MDA-MB-231, H1975, DU145, PC3
[9] = averages of dose-response metrics across the panel
[10] = averages over 11 cell lines, minimal fold differences

COCCOCCOCCOCCOCCOCCSSCCNCCCN.O=C(O)C(F)(F)F.O=C(O)C(F)(F)F [1LP65, m-PEG6-S-S-WR1065]
CC50 (A549 NSCLC cells): 155 ± 8 µM
GI50 (A549 NSCLC cells): 52.3 µM and 52 µM
IC50 (A549 NSCLC cells): 66.6 ± 7.9 µM
LC99 (A549 NSCLC cells): 187 ± 11 µM
TGI (A549 NSCLC cells): 126 ± 3 µM and 126 µM
Dose reduction value AMF ÷ 1LP65 (A549 NSCLC cells; at GI50): 5.5 fold
Dose reduction value AMF ÷ 1LP65 (A549 NSCLC cells; at IC50): 4.4 fold
GI50 (A549 NSCLC cells; [2]): 17.1 µM
IC50 (A549 NSCLC cells; [2]): 33.1 µM
GI50 (A549 NSCLC cells; [3]): 38.6 µM
IC50 (A549 NSCLC cells; [3]): 51 µM
GI50 (NCI-H1975 NSCLC cells; [4]): 38.9 ± 2 µM
IC50 (NCI-H1975 NSCLC cells; [4]): 52.3 ± 4.4 µM
LC99 (NCI-H1975 NSCLC cells; [4]): 86.8 ± 2.7 µM
TGI (NCI-H1975 NSCLC cells; [4]): 51.8 ± 4.9 µM
Dose reduction value AMF ÷ 1LP65 (NCI-H1975 NSCLC cells; at GI50): 3.3 fold
CC50 (NCI-H1975 NSCLC cells; [5]): 63.3 ± 5.2 µM
GI50 (Ovary SKOV3 cells; [4]): 40.9 ± 0.5 µM
IC50 (Ovary SKOV3 cells; [4]): 45.5 ± 2.5 µM
LC99 (Ovary SKOV3 cells; [4]): 98.9 ± 8.6 µM
TGI (Ovary SKOV3 cells; [4]): 50.3 ± 2.0 µM and 50.3 µM
Dose reduction value AMF ÷ 1LP65 (Ovary SKOV3 cells; at GI50): 2.0 fold
Dose reduction value AMF ÷ 1LP65 (Ovary SKOV3 cells; at IC50): 6.5 fold
CC50 (Ovary SKOV3 cells; [5]): 68.8 ± 1.8 µM
GI50 (Ovary TOV21G cells; [4]): 21.3 ± 3.8 µM
IC50 (Ovary TOV21G cells; [4]): 26.3 ± 3.6 µM
LC99 (Ovary TOV21G cells; [4]): 92.0 ± 2.8 µM
TGI (Ovary TOV21G cells; [4]): 32.7 ± 6.2 µM
Dose reduction value AMF ÷ 1LP65 (Ovary TOV21G cells; at GI50): 2.2 fold
Dose reduction value AMF ÷ 1LP65 (Ovary TOV21G cells; at IC50): 1.6 fold
CC50 (Ovary TOV21G cells; [5]): 51.3 ± 12.2 µM
GI50 (Prostate DU145 cells; [4]): 26.3 ± 3.8 µM
IC50 (Prostate DU145 cells; [4]): 39.8 ± 3.1 µM
LC99 (Prostate DU145 cells; [4]): 83.5 ± 5.5 µM
TGI (Prostate DU145 cells; [4]): 52.8 ± 5.3 µM and 52.8 µM
Dose reduction value AMF ÷ 1LP65 (Prostate DU145 cells; at GI50): 4.8 fold
Dose reduction value AMF ÷ 1LP65 (Prostate DU145 cells; at IC50): 8.0 fold
CC50 (Prostate DU145 cells; [5]): 71.4 ± 4.3 µM
GI50 (Prostate LNCaP cells; [4]): 28.3 ± 1.9 µM
IC50 (Prostate LNCaP cells; [4]): 44.3 ± 2.8 µM
LC99 (Prostate LNCaP cells; [4]): 114 ± 8.4 µM
TGI (Prostate LNCaP cells; [4]): 51.7 ± 3.8 µM
Dose reduction value AMF ÷ 1LP65 (Prostate LNCaP cells; at GI50): 5.3 fold
Dose reduction value AMF ÷ 1LP65 (Prostate LNCaP cells; at IC50): 8.5 fold
CC50 (Prostate LNCaP cells; [5]): 88.8 ± 7.1 µM
fold greater effect than amifostine (human cancer cell lines): 2.1 fold
LC99, All cell lines (human cancer cell lines; [6]): 126 ± 15.8 µM
TGI, All cell lines (human cancer cell lines; [6]): 69.3 ± 10.3 µM
LC99, range for individual cell lines (human cancer cell lines; [7]): 83.5 to 234 µM
TGI, range for individual cell lines (human cancer cell lines; [7]): 32.7 to 126 µM
fold lower concentrations in TP53-mutant compared to TP53 wild-type cell lines (human cancer cell lines; H1437 and TOV21G excluded, across dose-response metrics): ~ 1.8 fold
LC99, TP53 Wild-Type (human cancer cell lines; average of A549, H460, LNCaP): 161 ± 20.4 µM
TGI, TP53 Wild-Type (human cancer cell lines; average of A549, H460, LNCaP): 101 ± 20.1 µM
LC99, TP53 Mutant (human cancer cell lines; [8]): 95.1 ± 9.9 µM
TGI, TP53 Mutant (human cancer cell lines; [8]): 52.0 ± 7.3 µM
fold more potent than amifostine as a cytostatic agent, average (human cancer cell lines; [9]): 5.9 fold
fold more potent than amifostine as a cytostatic agent, range (human cancer cell lines; [9]): 5.0- to 6.4 fold
Fold difference in drug potency vs amifostine: GI50 (human cancer cell lines; [10]): > 5.0
Fold difference in drug potency vs amifostine: IC50 (human cancer cell lines; [10]): > 6.4
Fold difference in drug potency vs amifostine: TGI (human cancer cell lines; [10]): > 6.3
GI50 (human cancer cell lines; read-out: GI50, All cell lines, 1LP65: average across 11 cell lines, 48 h): 41.2 ± 5.4 µM
GI50 (human cancer cell lines; read-out: GI50, TP53 Mutant, average of HCC38, MDA-MB-231, H1975, DU145, PC3): 33.3 ± 3.7 µM
GI50 (human cancer cell lines; read-out: GI50, TP53 Wild-Type, average of A549, H460, LNCaP): 52.7 ± 12.4 µM
GI50 (human cancer cell lines; read-out: GI50, range for individual cell lines, 15 cell lines for 4SP65, 11 for 1LP65): 21.3 to 77.7 µM
CC50 (human cancer cell lines; read-out: LC50, All cell lines, 1LP65: average across 11 cell lines, 48 h): 94.6 ± 12.8 µM
CC50 (human cancer cell lines; read-out: LC50, TP53 Mutant, average of HCC38, MDA-MB-231, H1975, DU145, PC3): 72.9 ± 9.5 µM
CC50 (human cancer cell lines; read-out: LC50, TP53 Wild-Type, average of A549, H460, LNCaP): 133 ± 19.1 µM
CC50 (human cancer cell lines; read-out: LC50, range for individual cell lines, 15 cell lines for 4SP65, 11 for 1LP65): 51.3 to 157 µM
GI50 (human cancer cell lines; read-out: average GI50): 30.4 µM
IC50 ([1]; Strain-2 NHMECs, 48 h, read-out: IC50): > 500 µM
IC50 ([1]; Strain-2 and Strain-3, read-out: average IC50 for the two normal cell strains): > 355 µM
cell growth, % of control cell values ([1]; Strain-2 cells, 48 h): 19.5%
IC50 ([1]; Strain-3 NHMECs, 48 h, read-out: IC50): 210 µM
cell growth, % of control cell values ([1]; Strain-3 cells, 48 h): 12.5%
